Reference: patent US6525022B1, “Receptor specific atrial natriuretic peptides” (Genentech, Inc., priority 1993, dated 2003)
One block for each compound: values may come before it. Where a SMILES comes first, the peptide text is derived from it. Bridges are numbered along the chain shown (N, C = ends).

Tests used:
[1] = molecular target: T1, hNPR-A (Homo sapiens, UniProt P16066); assay: Competition binding to hNPR-A (Table I, FIG. 5)
T1 sequence (P16066 33-1061): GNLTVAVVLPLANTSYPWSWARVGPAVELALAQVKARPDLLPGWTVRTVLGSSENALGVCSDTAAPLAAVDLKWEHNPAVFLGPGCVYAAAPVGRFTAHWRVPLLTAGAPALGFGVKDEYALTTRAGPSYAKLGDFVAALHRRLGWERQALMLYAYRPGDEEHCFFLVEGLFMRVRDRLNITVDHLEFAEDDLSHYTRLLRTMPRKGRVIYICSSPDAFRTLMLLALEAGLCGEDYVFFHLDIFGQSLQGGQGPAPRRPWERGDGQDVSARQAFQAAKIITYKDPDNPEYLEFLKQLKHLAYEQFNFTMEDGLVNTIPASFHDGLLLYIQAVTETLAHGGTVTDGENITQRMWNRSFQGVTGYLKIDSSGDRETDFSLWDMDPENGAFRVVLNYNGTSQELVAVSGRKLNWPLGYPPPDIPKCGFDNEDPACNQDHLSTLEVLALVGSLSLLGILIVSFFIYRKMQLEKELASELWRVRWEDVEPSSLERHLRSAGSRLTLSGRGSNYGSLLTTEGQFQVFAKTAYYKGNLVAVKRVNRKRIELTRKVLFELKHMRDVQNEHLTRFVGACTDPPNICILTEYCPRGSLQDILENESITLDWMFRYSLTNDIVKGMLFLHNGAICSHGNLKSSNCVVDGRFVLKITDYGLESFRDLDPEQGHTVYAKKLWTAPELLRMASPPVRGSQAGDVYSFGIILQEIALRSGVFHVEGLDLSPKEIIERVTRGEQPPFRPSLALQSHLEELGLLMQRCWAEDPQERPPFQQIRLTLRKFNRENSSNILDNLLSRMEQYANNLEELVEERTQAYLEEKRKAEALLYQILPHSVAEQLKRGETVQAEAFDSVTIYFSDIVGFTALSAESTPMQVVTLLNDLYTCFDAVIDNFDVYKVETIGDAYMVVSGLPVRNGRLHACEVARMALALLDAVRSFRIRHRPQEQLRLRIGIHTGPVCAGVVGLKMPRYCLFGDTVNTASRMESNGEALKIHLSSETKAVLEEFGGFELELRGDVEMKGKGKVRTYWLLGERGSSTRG

[2] = molecular target: T2, hNPR-C (Homo sapiens, UniProt P17342); assay: Competition binding to hNPR-C (Table I, FIG. 5)
T2 sequence (P17342 27-541): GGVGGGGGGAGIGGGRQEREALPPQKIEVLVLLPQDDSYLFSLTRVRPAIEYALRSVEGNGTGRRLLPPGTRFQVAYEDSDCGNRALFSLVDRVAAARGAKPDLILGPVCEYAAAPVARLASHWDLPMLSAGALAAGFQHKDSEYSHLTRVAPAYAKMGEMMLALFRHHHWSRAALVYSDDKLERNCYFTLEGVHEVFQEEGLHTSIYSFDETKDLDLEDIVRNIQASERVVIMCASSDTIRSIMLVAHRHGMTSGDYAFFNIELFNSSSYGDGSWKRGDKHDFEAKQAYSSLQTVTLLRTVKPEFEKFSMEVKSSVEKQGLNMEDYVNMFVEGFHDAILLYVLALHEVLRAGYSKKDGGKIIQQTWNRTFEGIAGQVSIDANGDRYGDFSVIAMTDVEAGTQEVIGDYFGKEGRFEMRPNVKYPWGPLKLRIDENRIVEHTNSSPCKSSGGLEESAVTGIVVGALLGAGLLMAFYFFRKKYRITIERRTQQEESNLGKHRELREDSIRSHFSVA

[3] = molecular target: T2, hNPR-C; assay: Competitive binding to membranes from cells expressing human NPR-C; parameters: expressed in transfected cells; details: FIG. 19, in comparison to rat ANP
Procedure: Membrane preparation. Stable cell lines expressing human NPR-A (Lowe and Fendly, J. Biol. Chem. 267:21691-21697 (1992)) or human NPR-C (Cunningham et al., EMBO J 13, 2508-2515 (1994)) were removed from cell culture dishes with 0.5 mM EDTA in phosphate buffered saline (PBS), placed in ice cold PBS and centrifuged at 228 g for 10 min at 4° C. The cell pellets were resuspended in ice-cold homogenization buffer (50 mM HEPES, 1 mM EDTA, 1 mM DTT, 0.25 M sucrose, 0.7 mg/mL pepstatin A, 0.5 mg/mL leupeptin and 1 mM PMSF, pH 7.4). The cells were then homogenized using a Brinkman polytron at setting 5 for 30 sec. The homogenate was centrifuged at 400×g for 10 min at 4° C. The supernatant was collected and centrifuged at 100,000×g for 30 min at 4° C. […] Protein concentrations was determined using the Biorad protein assay with IgG as a standard.
Membrane competition binding assays. […] The plates were washed six times with PBS, then air dried prior to adding scintillant and counted in a Packard Topcount scintillation counter for 1 min/well. Binding was measured in duplicate for each concentration of competitor.
Data analysis. The competition binding curves and cGMP production dose responses were analyzed by the four-parameter logistic equation with the KaleidaGraph™ program (Synergy Software, PA) to obtain estimates of the IC50 or EC50 values. […]

[4] = test system: rhesus monkeys; format: in vivo; details: rhesus monkey
Procedure: Administration of Natriuretic Peptides to Rhesus Monkeys. […] A second iv catheter was inserted for fluid administration and blood withdrawal. A urinary catheter was inserted and urine flow monitored at 10 minute intervals. Urine output and blood withdrawal volumes were replaced by intravenous administration of equal volumes of equal parts of one-half normal saline and 5% (W/V) dextrose in water (D5W). […] Every ten minutes, urine, if present, was collected, the volume recorded and analyzed for sodium and potassium content.

SMILES: CC[C@H](C)[C@@H]1NC(=O)[C@H](CCCNC(=N)N)NC(=O)[C@H](CC(=O)O)NC(=O)[C@H]([C@@H](C)CC)NC(=O)[C@H](CO)NC(=O)CNC(=O)[C@H]([C@@H](C)O)NC(=O)[C@H](Cc2ccccc2)NC(=O)[C@@H](NC(=O)[C@H](CO)NC(=O)[C@H](CO)NC(=O)[C@H](CCCNC(=N)N)NC(=O)[C@H](CCCNC(=N)N)NC(=O)[C@H](CC(C)C)NC(=O)[C@H](CO)NC(=O)[C@H](CCCNC(=N)N)NC(=O)[C@@H]2CCCN2C(=O)[C@H](C)NC(=O)[C@@H](N)[C@@H](C)O)CSSC[C@@H](C(=O)N[C@@H](CC(N)=O)C(=O)N[C@@H](CO)C(=O)N[C@@H](Cc2ccccc2)C(=O)N[C@@H](CCCNC(=N)N)C(=O)N[C@@H](Cc2ccc(O)cc2)C(=O)O)NC(=O)CNC(=O)[C@H](CC(C)C)NC(=O)CNC(=O)[C@H](CO)NC(=O)[C@H](CCC(N)=O)NC(=O)[C@H](C)NC(=O)[C@H](CCCNC(=N)N)NC1=O [ANF 76] (H-TAPRSLRRSSCFTGSIDRIRAQSGLGCNSFRY-OH; disulfide 11-27; C-terminus assumed)
IC50 [1]: 8.9 pM
IC50 [2]: 10 µM

Binding to human NPR-C membranes, competition for 125I-rat ANP [3]: does not effectively bind
SMILES: CC[C@H](C)[C@@H]1NC(=O)[C@H](CCCNC(=N)N)NC(=O)[C@H](CC(=O)O)NC(=O)[C@H]([C@@H](C)CC)NC(=O)[C@H](CO)NC(=O)CNC(=O)[C@H]([C@@H](C)O)NC(=O)[C@H](Cc2ccccc2)NC(=O)[C@@H](NC(=O)[C@H](CO)NC(=O)[C@H](CO)NC(=O)[C@H](CCCNC(=N)N)NC(=O)[C@H](CCCNC(=N)N)NC(=O)[C@H](CC(C)C)NC(=O)[C@@H](N)CO)CSSC[C@@H](C(=O)N[C@@H](CC(N)=O)C(=O)N[C@@H](CO)C(=O)N[C@@H](Cc2ccccc2)C(=O)N[C@@H](CCCNC(=N)N)C(=O)N[C@@H](Cc2ccc(O)cc2)C(=O)O)NC(=O)CNC(=O)[C@H](CC(C)C)NC(=O)CNC(=O)[C@H](CO)NC(=O)[C@H](CCC(N)=O)NC(=O)[C@H](C)NC(=O)[C@H](CCCNC(=N)N)NC1=O [ANF 27]

Infusion rate at which dosing was discontinued because of hypotension ([4]; in vivo): 25 ng/kg/min
SMILES: CC[C@H](C)[C@@H]1NC(=O)[C@H](CCCNC(=N)N)NC(=O)[C@H](CC(=O)O)NC(=O)[C@H]([C@@H](C)CC)NC(=O)[C@H](CO)NC(=O)CNC(=O)[C@H]([C@@H](C)O)NC(=O)[C@H](Cc2ccccc2)NC[C@@H](NC(=O)[C@H](CO)NC(=O)[C@H](CO)NC(=O)[C@H](CCCNC(=N)N)NC(=O)[C@H](CCCNC(=N)N)NC(=O)[C@H](CC(C)C)NC(=O)[C@@H](N)CO)CSSC[C@@H](C(=O)N[C@@H](CC(N)=O)C(=O)N[C@@H](CO)C(=O)N[C@@H](Cc2ccccc2)C(=O)N[C@@H](CCCNC(=N)N)C(=O)N[C@@H](Cc2ccc(O)cc2)C(=O)O)NC(=O)CNC(=O)[C@H](CC(C)C)NC(=O)CNC(=O)[C@H](CO)NC(=O)[C@H](CCC(N)=O)NC(=O)[C@H](C)NC(=O)[C@H](CCCNC(=N)N)NC1=O [ANF 84]
Urine flow, potassium excretion and sodium excretion ([4]; 7.5 ng/kg/min 60-minute infusion): began to rise in parallel at the beginning of the 7.5 ng/kg/min infusion, but returned to baseline by 60 minutes
Potassium excretion ([4]; 25 ng/kg/min infusion): remained at slightly-elevated levels
Sodium excretion above baseline ([4]; 25 ng/kg/min infusion): ~100 fold
Urine flow above baseline ([4]; 25 ng/kg/min infusion): approximately 10 fold
Systolic arterial pressure ([4]; escalating iv infusion from 7.5 ng/kg/min): began to gradually decline
